Assay results: publication PMC8510601, “Discovery of benzamide-hydroxypyridinone hybrids as potent multi-targeting agents for the treatment of Alzheimer's disease” (Journal of Enzyme Inhibition and Medicinal Chemistry, 2021)
Counter-ions that a name gives are not always drawn. Like-named read-outs stand apart in the source and are kept apart here.

How the values were obtained:
in vitro = conditions: PAMPA
[1] = literature value, cited from earlier work
MAO-B = target: T1, MAO-B (Homo sapiens, UniProt P27338); experiment: Human MAO-B inhibition assay; format: biochemical; conditions: for inhibition at 0.1 µM: read-out: Inhibitory rate ± SEM (%, 100 nM); for inhibition at 1 µM: read-out: Inhibitory rate ± SEM (%, 1 μM); for IC50: ± SEM, read-out: IC50 against MAO-B
T1 sequence (P27338 1-520): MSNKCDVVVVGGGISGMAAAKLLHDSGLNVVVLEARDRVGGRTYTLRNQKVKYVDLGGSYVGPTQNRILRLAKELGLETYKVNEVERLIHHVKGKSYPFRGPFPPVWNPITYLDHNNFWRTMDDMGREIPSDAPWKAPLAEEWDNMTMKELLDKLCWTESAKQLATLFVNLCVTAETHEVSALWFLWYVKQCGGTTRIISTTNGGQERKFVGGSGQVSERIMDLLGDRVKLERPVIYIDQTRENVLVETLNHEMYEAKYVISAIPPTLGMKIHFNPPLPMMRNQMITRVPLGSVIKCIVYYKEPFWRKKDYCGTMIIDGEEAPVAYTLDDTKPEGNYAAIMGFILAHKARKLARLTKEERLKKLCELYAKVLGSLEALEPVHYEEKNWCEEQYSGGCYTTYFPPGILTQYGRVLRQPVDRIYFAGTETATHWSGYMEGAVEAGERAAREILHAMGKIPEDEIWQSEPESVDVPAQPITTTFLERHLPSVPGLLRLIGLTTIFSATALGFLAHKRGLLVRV

[2] = pKa determination by spectrophotometric titration; conditions: pH range 2.0–10.5, 25 °C
[3] = Iron-chelating activity test: affinity constants for Fe3+ and pFe3+
[4] = DFP^d: KCl (0.1 M); cited from earlier work
[5] = DFP^d: KCl (0.1 M); cited from earlier work; remark: listed apart in the source
[6] = system: scopolamine-induced cognitive dysfunction ICR mice; experiment: Morris water maze test, scopolamine-induced cognitive dysfunction; conditions: MWM last day, test agent 15 mg/kg i.p. + scopolamine 15 mg/kg i.p., 15 days, n = 8, mean ± SEM
Protocol: The MWM test was performed at the last 5 days including two days of memory and learning training, three days of cognitive assessment. On the fifth day, a probe training trial was performed and analysed. […] However, the dosage of scopolamine was increased from 5 mg/kg to 15 mg/kg to achieve a better modelling effect.
Cognitive and memory assays in vivo
The adult female ICR mice (8-10 weeks old, weight 20-25 g) were obtained from the
Zhejiang Academy of Medical Sciences (Hangzhou, China).
agents were prepared as clear injections, consisting of 10% DMSO, 20%
(2-hydroxypropyl)-β-cyclodextrin and PBS. The mice were trained to find the platform (10 cm
diameter) in the opaque circular pool (120 cm diameter, 60 cm height) filled with water (40 cm,
depth), which was described in detail in our previous study.[1] All mice received at least one
training session daily in four quadrants for four consecutive days before testing of finding the
The mice were randomly divided into four groups: (i) control group (PBS of 20%
were intraperitoneally injected with indicated compounds or solvent 30 min before intraperitoneal
injection with scopolamine or PBS once a day for 15 consecutive days. The Morris water maze
test was performed at the last 5 days.

PC12 cells = experiment: Intracellular ROS detection (DCFH-DA), Aβ1–42-induced; format: cell-based; conditions: 8g and Aβ1–42 10 μM, flow cytometry
Protocol: Aβ deposition and peroxidation are also important clinical features of AD. Therefore, we subsequently assessed the antioxidation of compound 8g, using 2′,7′-dichlorofluorescin diacetate (DCFH-DA) to detect intracellular ROS generation on the PC12 cell line derived from neural pheochromocytoma. Based on our previous research, the concentration of 10 μM of compound 8g was chosen in this test. […]
8. Intracellular ROS detection

PAMPA-BBB assay = conditions: from Pe in PAMPA-BBB
[7] = 0.1 M KCl aqueous solution, KCl (0.1 M)
[8] = 0.1 M KCl aqueous solution, pKa2, KCl (0.1 M)
[9] = pH 7.4, [Fe3+]total = 10^−6 M, [ligand]total = 10^−5 M, calculated from pKa and log β measured in KCl/DMSO

| inhibition at 0.1 µM (MAO-B; 100 nM) | inhibition at 1 µM (MAO-B; 1 μM) | IC50 (MAO-B) | melting point | pKa [2, 7] | pKa [2, 8] | Compound | Log β2 ([3]; KCl (0.1 M): DMSO = 3:2 (v/v)) | Log β3 ([3]; KCl (0.1 M): DMSO = 3:2 (v/v)) | Log β1 ([3]; KCl (0.1 M): DMSO = 9:1 (v/v)) | pFe^3+ [3, 9] | other results |
| --- | --- | --- | --- | --- | --- | --- | --- | --- | --- | --- | --- |
| > 50% | 70.9 ± 2.51% | 82.8 ± 0.8 nM | 254 to 256 °C | 3.62 | 9.76 | Cc1c(O)c(=O)ccn1CCNC(=O)c1ccc(OCc2ccc(F)cc2)cc1 [Compound 8m] | 26.77 | 35.31 | 15.03 | 18.81 |  |
| 37.6 ± 1.01% | 55.3 ± 1.91% |  | 163 to 165 °C | 3.33 | 9.95 | Cc1c(O)c(=O)ccn1CCNC(=O)c1ccc(O)cc1 [Compound 8y] | 26.07 | 35.42 | 14.61 | 18.31 |  |
| 45.1 ± 1.62% | 64.1 ± 0.82% | 118 ± 4.24 nM | 245 to 247 °C | 3.12 | 9.93 | Cc1ccc(COc2ccc(C(=O)NCCn3ccc(=O)c(O)c3C)cc2)cc1 [Compound 8t] | 26.42 | 35.19 | 14.45 | 18.18 |  |
| 37.9 ± 1.22% | 54.57 ± 0.51% |  | 178 to 180 °C | 3.38 | 9.92 | Cc1c(O)c(=O)ccn1CCNC(=O)c1cccc(OCc2ccccc2)c1 [Compound 8f] | 26.85 | 35.33 | 14.75 | 18.38 |  |
| 41.5 ± 1.94% | 62.92 ± 0.51% | 128 ± 3.96 nM | 247 to 249 °C | 3.33 | 9.58 | Cc1c(O)c(=O)ccn1CCNC(=O)c1ccc(OCc2ccc(C(C)C)cc2)cc1 [Compound 8u] | 25.58 | 35.36 | 14.67 | 19.35 |  |
| 44.38 ± 0.23% | 56.43 ± 0.24% | 121.5 ± 0.86 nM | 156 to 158 °C | 3.47 | 9.68 | Cc1c(O)c(=O)ccn1CCNC(=O)c1ccccc1O [Compound 8w] | 25.69 | 34.63 | 14.45 | 18.34 |  |
| 34 ± 5.19% | 61.48 ± 0.58% |  | 219 to 221 °C | 3.35 | 9.86 | Cc1c(O)c(=O)ccn1CCNC(=O)c1ccccn1 [Compound 11a] | 25.92 | 35.10 | 14.52 | 18.27 |  |
| 43.63 ± 0.34% | 55.75 ± 0.03% | 121 ± 1.94 nM | 144 to 146 °C | 3.28 | 9.75 | Cc1c(O)c(=O)ccn1CCNC(=O)c1cccc(O)c1 [Compound 8x] | 25.93 | 34.96 | 14.67 | 18.46 |  |
| > 50% | 77.65 ± 0.6% | 79 ± 0.3 nM | 211 to 213 °C | 3.43 | 9.81 | Cc1c(O)c(=O)ccn1CCNC(=O)c1ccccc1 [Compound 8a] | 26.35 | 35.83 | 14.93 | 19.14 |  |

Second part, the compound before the results:

| Compound | inhibition at 0.1 µM (MAO-B; 100 nM) | inhibition at 1 µM (MAO-B; 1 μM) | IC50 (MAO-B) | melting point | pKa [2, 7] | pKa [2, 8] | Log β2 ([3]; KCl (0.1 M): DMSO = 3:2 (v/v)) | Log β3 ([3]; KCl (0.1 M): DMSO = 3:2 (v/v)) | Log β1 ([3]; KCl (0.1 M): DMSO = 9:1 (v/v)) | pFe^3+ [3, 9] | other results |
| --- | --- | --- | --- | --- | --- | --- | --- | --- | --- | --- | --- |
| Nc1c2c(nc3ccccc13)CCCC2 [Tacrine] |  |  |  |  |  |  |  |  |  |  | Papp at 6 h, 25 μg/mL (in vitro): 4.12 ± 0.45 ×10⁻⁶ cm/s; Pe ([1]; footnote b): 5.3 ± 0.19^b 10^–6 cm/s |
| Cc1c(O)c(=O)ccn1C [DFP, Deferiprone, reference compound] |  |  |  |  |  |  | 26.04 | 34.84 | 14.75 | 18.24 | Log β1 [4]: 15.03; Log β2 [4]: 27.42; Log β3 [4]: 37.35; pFe^3+ [4]: 20.74; pKa1 [5]: 3.61; pKa2 [5]: 9.78; pKa ([2]; KCl (0.1 M)): 3.64; pKa2 ([2]; KCl (0.1 M)): 9.79; pFe^3+ ([3]; DFP^a: from constants measured in KCl (0.1 M)): 20.12; Log β1 ([3]; DFP^a: measured in KCl (0.1 M)): 14.86; Log β2 ([3]; DFP^a: measured in KCl (0.1 M)): 27.13; Log β3 ([3]; DFP^a: measured in KCl (0.1 M)): 36.76 |
| CN1[C@@H]2C[C@@H](OC(=O)[C@H](CO)c3ccccc3)C[C@H]1[C@@H]1O[C@@H]12 [scopolamine, Scopolamine hydrobromide] |  |  |  |  |  |  |  |  |  |  | Distance to the target [6]: 7.74 ± 1.23 m; Entries to the target [6]: 2.00 ± 0.50; Latency to the target [6]: 41.40 ± 5.87 s |
| Aβ1–42: Aβ peptide used to induce intracellular ROS in PC12 cells (model group) [reference compound] |  |  |  |  |  |  |  |  |  |  | ROS %Gated (percentage of positive cells in the total number of cells) (PC12 cells): 44.58%; ROS Mean (average fluorescence intensity of all cells) (PC12 cells): 131.56 |
| CN1C(C(=O)Nc2ccccn2)=C(O)c2ccccc2S1(=O)=O [Piroxicam] |  |  |  |  |  |  |  |  |  |  | Papp (in vitro): 2.05 ± 0.04 ×10⁻⁶ cm/s; Pe ([1]; footnote c): 2.5^c 10^–6 cm/s; Prediction of CNS penetrability (PAMPA-BBB assay): CNS ± (CNS ±: 2.0 < Pe (10^–6 cm/s) < 4.0, uncertain BBB permeability) |
| C#CCN(C)Cc1ccccc1 [Pargyline, reference compound] |  |  |  |  |  |  |  |  |  |  | inhibition at 0.1 µM (MAO-B): 50.3 ± 0.73%; inhibition at 1 µM (MAO-B): 91.59 ± 0.09%; Distance to the target [6]: 2.89 ± 0.69 m; Entries to the target [6]: 3.85 ± 0.48 |
